Measurements reported in patent US20260258084A1, “New Peptides as Selective IL-23 Receptor Antagonists” (Sanofi, priority 2022, published 2026).
Starred links: 1 amine or outer side, 2 acyl side, 3 side chain; linkers in the order of their positions; H or OH if unused. Positions of bridges follow the written chain, without caps; N, C: chain ends. Non-standard residues stand in square brackets, D forms with d. Residues, ends and D or L forms follow the SMILES beside them. *: point of attachment. X3 = CN(CCCCC(=O)N[C@@H](CS[*:2])C(=O)[*:1])[*:3]; Trp(7-Me) = Cc1cccc2c(C[C@H](N)C(=O)O)c[nH]c12; αMeLys(Me2) = CN(C)CCCC[C@](C)(N)C(=O)O; X2 = CN(C)[C@@H](CCCCN[*:1])C(=O)[*:2]; 2Nal = N[C@@H](Cc1ccc2ccccc2c1)C(=O)O; AEF = NCCOc1ccc(C[C@H](N)C(=O)O)cc1; 3Pal = N[C@@H](Cc1cccnc1)C(=O)O; αMeL = CC(C)C[C@](C)(N)C(=O)O; Suc = O=C(CCC(=O)[*:2])[*:1]; Thp = NC1(C(=O)O)CCOCC1; Me2NCH2CH2 = CN(C)CC*; Aib = CC(C)(N)C(=O)O; Ava = NCCCCC(=O)O; βAla = NCCC(=O)O; Sar = CNCC(=O)O

Assays:
[1] = molecular target: T1, human interleukin-23 receptor (recombinant human IL-23R-Fc chimera) (Homo sapiens, UniProt Q5VWK5); assay: Human ELISA IL23/IL23R (assay for specific human IL23R antagonists); assay type: binding; settings: Table 10; read-out: Human ELISA IL23/IL23R IC50
T1 construct: Fc (IgG Fc fusion)
In short: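 Plates coated overnight at 4 °C with human IL23 ([…]), blocked, then serially diluted peptides added with recombinant human IL-23R-Fc (0.1 μg/ml final) for 60 min at room temperature. Bound receptor detected with anti-human IgG1-HRP and fluorogenic peroxidase substrate.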

Pepsin = system: T2, Pepsin; assay: Protease stability in simulated gastric fluid (Pepsin-SGF, FaSSGF); assay type: in vitro ADME; settings: simulated gastric fluid with pepsin (Pepsin-SGF), 60 min, 1 μM peptide, 37° C., read-out: FaSSGF 60 (min), remaining percent of peptide
T2 construct: purchased Merck Millipore
In short: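 Peptides at 1 μM final in pepsin-containing SGF at 37° C, sampled at 0, 60, 120 and 240 min, quenched with ethanol (0.1% HCOOH). Analysed by LCMS/MS; percent remaining from peak area relative to time 0 (set to 100%).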

[2] = system: IL-23 induced STAT3 signaling in HEK-Blue™ IL-23 cells; assay: IL-23 induced STAT3 signaling in HEK-Blue IL-23 cells (SEAP reporter); assay type: cell-based; settings: human IL23 0.25 ng/ml, read-out: pSTAT3
In short: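 HEK-Blue IL-23 cells (10,000/well) pre-incubated 60 min at 37 °C with serially diluted peptides, then stimulated overnight with human IL-23 (0.25 ng/ml final). STAT3-driven SEAP in supernatant detected with QUANTI-Blue after 45 min at RT (OD 620-655 nm); dose-response curves fitted.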

Pancreatin = assay: Protease stability in simulated intestinal fluid (Pancreatin-SIF, FaSSIF); assay type: in vitro ADME; settings: 1 μM peptide, 37° C.; for remaining at 1 h, 1 µM: 60 min, read-out: FaSSIF 60 (min), remaining percent of peptide; for remaining at 2 h, 1 µM: 120 min, read-out: FaSSIF 120 (min), remaining percent of peptide; for remaining at 4 h, 1 µM: 240 min, read-out: FaSSIF 240 (min), remaining percent of peptide
In short: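 Peptide (1 μM final) was incubated at 37° C in simulated intestinal fluid containing pancreatin (1 mg per 10 mL SIF concentrate). Samples were quenched with ethanol/0.1% HCOOH at 0, 60, 120 and 240 min and analysed by LC-MS/MS. Percent remaining is the peak area relative to time 0 (100%).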

[3] = Chemical stability assessment of peptides (relative purity loss); assay type: physicochemical; settings: 24 hours at 37° C.; for Chemical stability (relative purity loss) Buffer pH 1.2: 50 mM HCl pH 1.2 + acetonitrile (1:1); for Chemical stability (relative purity loss) Buffer pH 6.5: 50 mM phosphate buffer pH 6.5 + acetonitrile (1:1); for Chemical stability (relative purity loss) Buffer pH 7.4: 50 mM phosphate buffer pH 7.4 + acetonitrile (1:1)
In short: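 Peptide solutions at 1 mg/ml (purity-corrected) in 1:1 acetonitrile with 50 mM HCl pH 1.2, or 50 mM phosphate pH 6.5 or pH 7.4, held 24 hours at 2° C. and 37° C. Supernatants analysed by UHPLC-UV; relative purity loss taken as percent drop in peak-area purity from 0 to 24 hours at 37° C.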

| SMILES | IC50 [1] | remaining at 1 h, 1 µM (Pepsin) | IC50 [2] | remaining at 1 h, 1 µM (Pancreatin) | remaining at 2 h, 1 µM (Pancreatin) | remaining at 4 h, 1 µM (Pancreatin) | Chemical stability (relative purity loss) Buffer pH 1.2 [3] | Chemical stability (relative purity loss) Buffer pH 6.5 [3] | Chemical stability (relative purity loss) Buffer pH 7.4 [3] |
| --- | --- | --- | --- | --- | --- | --- | --- | --- | --- |
| CC(=O)NCCCC[C@@H]1NC(=O)[C@H](Cc2c[nH]c3c(C)cccc23)NC(=O)[C@H]([C@@H](C)O)NC(=O)[C@H](CC(N)=O)NC(=O)[C@@H]2CSSC[C@H](NC1=O)C(=O)N[C@@H](Cc1ccc(OCCN(C)C)cc1)C(=O)N[C@@H](Cc1ccc3ccccc3c1)C(=O)NC1(CCOCC1)C(=O)N[C@H](C(=O)N[C@@H](CC(N)=O)C(=O)N[C@@H](Cc1c[nH]cn1)C(=O)NCCC(N)=O)CCC(=O)NCCCCC(=O)N2 [compound 49] ([Ava]CNT[Trp(7-Me)]K(Ac)CY(Me2NCH2CH2)[2Nal][Thp]ENH[βAla]-NH2; disulfide 2-7; lactam N-11) | 0.33 nM | 100% | 1.79 nM | 85% | 75% | 74% | 11.6% | 1.2% | 1.4% |
| CC(=O)NCCCC[C@@H]1NC(=O)[C@H](Cc2c[nH]c3ccccc23)NC(=O)[C@@H](N(C)C)CCCCNC(=O)[C@@H]2CSSC[C@H](NC1=O)C(=O)N[C@@H](Cc1ccc(OCCN(C)C)cc1)C(=O)N[C@@H](Cc1ccc3ccccc3c1)C(=O)N[C@@](C)(CCCCN(C)C)C(=O)N[C@H](C(=O)N[C@@H](CC(N)=O)C(=O)N[C@@H](Cc1cccnc1)C(=O)N(C)CC(N)=O)CCC(=O)NCCCCC(=O)N2 [compound 36] ([Ava]C[X2]WK(Ac)CY(Me2NCH2CH2)[2Nal][αMeLys(Me2)]EN[3Pal][Sar]-NH2; disulfide 2-6; lactam N-10) | 0.5 nM | 95% | 13.9 nM | 97% | 93% | 92% | 2.6% | 1.1% | 0.9% |
| CC(=O)NCCCC[C@@H]1NC(=O)[C@H](Cc2c[nH]c3c(C)cccc23)NC(=O)[C@H]([C@@H](C)O)NC(=O)[C@H](CC(N)=O)NC(=O)[C@@H]2CSSC[C@H](NC1=O)C(=O)N[C@@H](Cc1ccc(OCCN(C)C)cc1)C(=O)N[C@@H](Cc1ccc3ccccc3c1)C(=O)NC1(CCOCC1)C(=O)N[C@H](C(=O)N[C@@H](CC(N)=O)C(=O)N[C@@H](Cc1cccnc1)C(N)=O)CCC(=O)NCCCCC(=O)N2 [compound 51] ([Ava]CNT[Trp(7-Me)]K(Ac)CY(Me2NCH2CH2)[2Nal][Thp]EN[3Pal]-NH2; disulfide 2-7; lactam N-11) | 0.19 nM | 94% | 0.05 nM | 92% | 86% | 78% | 17.1% | 0.2% | 0.7% |
| CC(=O)N[C@H]1CCCCNC(=O)[C@@H]2CSSC[C@H](NC(=O)[C@H](CCC(N)=O)NC(=O)[C@H](Cc3c[nH]c4ccccc34)NC1=O)C(=O)N[C@@H](Cc1ccc(OCCN)cc1)C(=O)N[C@@H](Cc1ccc3ccccc3c1)C(=O)NC(C)(C)C(=O)N[C@H](C(=O)N[C@@H](C)C(=O)N[C@H](CC(C)C)C(N)=O)CCC(=O)N(C)CCCCC(=O)N2 [compound 19] (Ac-KWQC[AEF][2Nal][Aib]EA[dL]-NH2; linker 1-4-8 via X3) | 0.74 nM | 79% | 88.3 nM | 92% | 81% | 76% | 7.9% | 0.0% | 0.0% |
| CC(=O)NCCCC[C@@H]1NC(=O)[C@H](Cc2c[nH]c3c(C)cccc23)NC(=O)[C@H]([C@@H](C)O)NC(=O)[C@H](CC(N)=O)NC(=O)[C@@H]2CSSC[C@H](NC1=O)C(=O)N[C@@H](Cc1ccc(OCCN(C)C)cc1)C(=O)N[C@@H](Cc1ccc3ccccc3c1)C(=O)N[C@@](C)(CC(C)C)C(=O)N[C@H](C(=O)N[C@@H](CC(N)=O)C(=O)N[C@@H](Cc1c[nH]cn1)C(N)=O)CCCCNC(=O)CCC(=O)N2 [compound 23] (CNT[Trp(7-Me)]K(Ac)CY(Me2NCH2CH2)[2Nal][αMeL]KNH-NH2; disulfide 1-6; linker N-10 via Suc) | 0.26 nM | 69% | 3.32 nM | 79% | 68% | 67% | 11.3% | 0.0% | 0.0% |
| CC(=O)N[C@H]1CCCCNC(=O)[C@@H]2CSSC[C@H](NC(=O)[C@H](CCC(N)=O)NC(=O)[C@H](Cc3c[nH]c4ccccc34)NC1=O)C(=O)N[C@@H](Cc1ccc(OCCN)cc1)C(=O)N[C@@H](Cc1ccc3ccccc3c1)C(=O)N[C@@](C)(CC(C)C)C(=O)N[C@H](C(=O)N[C@@H](CC(N)=O)C(=O)N[C@@H](CC(N)=O)C(N)=O)CCC(=O)N(C)CCCCC(=O)N2 [compound 14] (Ac-KWQC[AEF][2Nal][αMeL]ENN-NH2; linker 1-4-8 via X3) | 0.36 nM | 72% | 18.7 nM | 83% | 68% | 49% | 25.8% | 0.6% | 0.1% |
| CC(=O)N[C@H]1CCCCNC(=O)[C@@H]2CSSC[C@H](NC(=O)[C@H](CCC(N)=O)NC(=O)[C@H](Cc3c[nH]c4ccccc34)NC1=O)C(=O)N[C@@H](Cc1ccc(OCCN)cc1)C(=O)N[C@@H](Cc1ccc3ccccc3c1)C(=O)NC(C)(C)C(=O)N[C@H](C(=O)N[C@@H](CC(N)=O)C(=O)N[C@@H](CC(N)=O)C(N)=O)CCC(=O)N(C)CCCCC(=O)N2 [compound 12] (Ac-KWQC[AEF][2Nal][Aib]ENN-NH2; linker 1-4-8 via X3) | 0.59 nM | 53% | 27.9 nM | 74% | 59% | 41% | 24.5% | 1.1% | 3.6% |
| CC(=O)N[C@H]1CCCCNC(=O)[C@@H]2CSSC[C@H](NC(=O)[C@H](CCC(N)=O)NC(=O)[C@H](Cc3c[nH]c4ccccc34)NC1=O)C(=O)N[C@@H](Cc1ccc(OCCN)cc1)C(=O)N[C@@H](Cc1ccc3ccccc3c1)C(=O)NC1(CCOCC1)C(=O)N[C@H](C(=O)N[C@@H](C)C(=O)NCC(N)=O)CCC(=O)N(C)CCCCC(=O)N2 [compound 17] (Ac-KWQC[AEF][2Nal][Thp]EAG-NH2; linker 1-4-8 via X3) | 0.28 nM | 71% | 62 nM | 81% | 75% | 64% | 5.6% | 0.0% | 0.0% |
| COc1ccc(C[C@@H]2NC(=O)[C@@H]3CSSC[C@H](NC(=O)CCC(=O)NCCCC[C@@H](C(=O)N[C@@H](CC(N)=O)C(=O)N[C@@H](CC(N)=O)C(N)=O)NC(=O)C(C)(C)NC(=O)[C@H](Cc4ccc5ccccc5c4)NC2=O)C(=O)N[C@@H](CC(N)=O)C(=O)N[C@@H]([C@@H](C)O)C(=O)N[C@@H](Cc2c[nH]c4ccccc24)C(=O)N[C@@H](CCC(N)=O)C(=O)N3)cc1 [compound 11] | 0.7 nM | 2% | 53.5 nM | 80% | 76% | 65% | 25.7% | 0.2% | 1.0% |
